Assay results taken from patent US10098895B2, “Treatment of symptoms related to neurodegenerative disorders through pharmacological dermal activation of cranial nerves” (GLIA, LLC, priority 2016, dated 2018).

Legend:
[1] = system: Parkinson's disease symptoms; experiment: Example 1: Parkinson's disease patient, dermal application to forehead and ear conchae
Method: A person was diagnosed with the early stages of Parkinson's disease in December of 2014. Their symptoms included tremors in the hands, impaired short term memory, slow and uncontrolled rigid movements while walking and eating, and declining ocular blink function. The patient also had dry eyes with hyper-tearing, burning, and itching.
The patient was also treated with progesterone 1% on the forehead initially once daily beginning in March 2015. […] The progesterone was applied as needed for about a year.
Instead of the prescribed regimen, the patient began dermal application of dronabinol 1.25 mg 2 times daily to three sites: (i) the forehead, (ii) the concha of the left ear, and (iii) the concha of the right ear. Each dose of 1.25 mg was divided equally between the three application sites. This treatment regimen began Friday Jun. 10, 2016 concurrent with the discontinuation of rasagiline.
In February 2017, the patient, who suffers from debilitating moderate spinal stenosis, started taking Azilect (rasagiline) and carbidopa-levodopa to improve their walking and flexibility. […] The patient decided that, together with the prescribed medications, they would switch from dronabinol to topical testosterone gel applied to the forehead and ear conchae to see if this would impact their longstanding low testosterone levels.
In March 2017, topical testosterone gel application was instituted as an adjunct to is the prescribed Azilect and carbidopa-levodopa.
The patient voluntarily stopped topical testosterone for 3 weeks in June 2017. […] At the end of 3 weeks, topical testosterone was re-instituted as an adjunct to the prescribed medications.

[2] = system: Parkinson's disease symptoms; experiment: Example 2: Parkinson's disease subject, topical progesterone and testosterone; type: in vivo, human
Text: A person was diagnosed with Parkinson's disease in August of 2015. Notable symptoms include both resting and action tremor of the left hand and fingers, forearm, and, to a lesser extent, the right hand and the left leg. Handwriting and computer keyboard work were difficult. They had ocular symptoms associated with the disease, including dry eye disease with moderate to severe burning and grittiness, rapid blink rate, and partial blinking. They used artificial tears constantly in an attempt to alleviate the ocular symptoms. They had not been on any Parkinson's medications. Their Parkinson's tremor followed an “on-off” cycle that correlated with their stress levels, the “on” cycle being times with low stress and few symptoms, and the “off” cycle induced by stress showing an increase in symptoms.
In late February 2017, the subject started applying single daily doses of 0.125% testosterone to the forehead and ear conchae. By the third day of treatment, the subject was tremor-free for periods of 4-6 hours, and the “on” part of the cycle was more frequent. […] The dose of testosterone was increased to 0.2% once daily in early April.
In July 2017, testosterone application was stopped after a taper to evaluate its effects. […] On Aug. 17, 2017, they reported extreme anxiety.
That same afternoon, the subject applied 0.2% testosterone to their forehead and ear conchae, and the next day reported less anxiety and more “on” cycles. By Aug. 20, 2017, they reported having stabilized on the once daily applications with a 60% or greater increase in “on” periods. On August 28, they reported going 9 hours without tremors and leg spasms. On Aug. 30, 2017, the subject was able to walk 8 miles and exercised in between. They described themself as feeling 100%.

[3] = system: Parkinson's tremor and ocular graft-versus-host disease; experiment: Example 3: Parkinson's tremor and co-morbid ocular graft-versus-host disease, topical progesterone; type: in vivo, human
Text: A person was diagnosed with Parkinson's disease over 3 years ago, leukemia about 2 years ago, and ocular graft versus host disease resulting from allogeneic stem cell treatment for the leukemia. The patient has been on oral carbidopa-levodopa for at least 2 years.
The patient started treatment with twice daily progesterone 1% gel applied to the forehead to promote ocular secretion of tear film, and to resolve other symptoms and signs of surface eye disease. […] On a follow up visit 5 weeks later, they reported continued relief from burning and photophobia.
When the patient was first seen in June 2016, they had noticeable significant tremors in both hands and multiple fingers. These were related to their Parkinson's disease as diagnosed and included muscle contractions, i.e., dyskinesia, related to their carbidopa-levodopa oral treatment.
During the 5-week ophthalmologist follow-up visit, the progesterone treatment regimen was performed in the office in modified form. More specifically, the daily dose of progesterone was divided, with 1 mg applied to the concha of each ear, excluding the forehead, to which progesterone had been applied 6 hours earlier. The patient reported improved moisture and comfort in both eyes approximately 2 minutes post application.
The patient had taken carbidopa-levodopa extended release medication at 6 am that morning, with an added immediate release dose at 8 am. The visit to the ophthalmologist was at 2 pm. At that point there was uncontrolled movement of the hands (dyskinesia) along with finger vibrations. The patient reported that the usual duration of efficacy of their carbidopa-levodopa regimen was 4 hours. Normally they would have taken another carbidopa-levodopa dose at 2 pm. Instead, progesterone was applied to the concha of both ears as described, supra.

[4] = system: herpes ophthalmicus and herpes keratitis; experiment: Example 8: herpes ophthalmicus and herpes keratitis patient; type: in vivo, human
Text: A patient experienced an episode of herpes ophthalmicus and herpes keratitis in September 2003, resulting in thinning melt of the left cornea, loss of vision, inflammation, neuralgia, and a rash of blisters to the left forehead, upper nose, and temple with a subsequent full left-face palsy droop, which required multiple cosmetic surgical procedures to provide some symmetry to the face and partial closure to the eyelids of the left eye.
No corneal graft to the left eye could be attempted due to recurrent thinning of the full cornea and inflammation of the vasculature. The patient was treated with ophthalmic prednisolone, topical and systemic antivirals, topical antibiotics, bandage lens, punctal plugs, and over-the-counter artificial tears and gels. This treatment regimen was continued until January 2011 when the cornea thinned to probable melt-through, necessitating corneal patch surgery. Just prior to the surgery, the patient's vision was measured at 20/2000, or finger vision.
The patient started applying 1% progesterone to their forehead twice daily just before corneal patch surgery planned for January 2011. The dose of progesterone was approximately 1 mg per application.
In September 2014, corneal tissue had sufficiently epithelialized at the perimeter to attempt a corneal graft, which was successfully completed. Progesterone 1% was applied daily to the forehead post-surgery. Within 9 months vision was restored to best correct vision pinhole 20/50.
In February 2015, the patient's visual acuity decreased as a result of the rejection of cells at the lower part of the graft. Moderate central staining continued to persist in a band where eyelids could not close. Intraocular pressure (TOP) in the left eye rose to 22 mmHg. The patient was placed on a treatment regimen that included Prednisolone Forte 6× plus Restasis for rejection 2× daily and oral valacycovir, together with mechanically taping the eyelid closed at night.
In May 2016, the patient initiated a course of twice daily dronabinol treatment, 0.5 mg each dose, to both ears. Through July, stabilization was achieved, and all other medications were discontinued. […] Visual acuity improved to 20/40.

CC(=O)[C@H]1CC[C@H]2[C@@H]3CCC4=CC(=O)CC[C@]4(C)[C@H]3CC[C@]12C [progesterone]
adverse events ([1]; human, in vivo): no adverse events were noted | ocular symptoms of burning and itching ([1]; progesterone 1% on the forehead, initially once daily, then as needed, on oral rasagiline): relieved their ocular symptoms of burning and itching | dry eye disease symptoms ([1]; progesterone 1% to the forehead once every week, July 2016 to August 2017): fully manage dry eye disease symptoms | tremors ([2]; progesterone 1% to forehead): no impact on the tremors | dry eye disease ([2]; progesterone 1% to forehead, within the first week): dry eye disease resolved | tremor symptoms ([2]; topical progesterone additionally applied to the ear conchae): minimal impact on tremor symptoms | dry eye disease ([2]; topical progesterone continued during testosterone abstinence): continued to be well managed | onset of tremor cessation ([3]; low dose progesterone USP added to conchae of outer ears): rapid cessation of tremor within minutes | time to improved moisture and comfort in both eyes ([3]; progesterone 1 mg to the concha of each ear): approximately 2 minutes | reduction of tremors in hands and fingers in frequency and amplitude ([3]; progesterone 1 mg to the concha of each ear, 2 minutes post application): about 90% | tear film secretion ([3]; progesterone 1% gel twice daily to forehead, after initial treatment): tear film secretion was improved | photophobia and burning ([3]; progesterone 1% gel twice daily to forehead, after initial treatment, on oral carbidopa-levodopa): immediate relief of photophobia and burning | facial masking and facial expression ([3]; progesterone applied to ear conchae regions): decreased facial masking and more voluntary facial expressions | hand and finger tremors ([3]; progesterone applied to the forehead only, 5 weeks): no change seen in the hand and finger tremors | tremor ([3]; topical progesterone to both conchae and forehead, carbidopa-levodopa at lower dosing frequency, 5 days): remained tremor-free until the subsequent visit 5 days later | corneal thinning ([4]; 1% progesterone to forehead twice daily, approximately 1 mg per application, from January 2011): corneal thinning stabilized | best correct vision pinhole ([4]; Progesterone 1% daily to forehead after corneal graft, within 9 months): 20/50 | corneal melt-through ([4]; progesterone treatment continued over two years): without corneal melt-through | tear film breakup and meibomian glands ([4]; when using Progesterone 1%): tear film breakup was normal and meibomian glands functioned well
